The results in this text go back to ChEMBL document CHEMBL3132818, “Heterocycle-fused lupane triterpenoids inhibit Leishmania donovani amastigotes” (Medchemcomm, 2014).

In general, IC50 refers to the concentration needed to halve the response being measured.

In series [1] the test system is Leishmania donovani. Briefly: Antileishmanial activity against axenic amastigote stage of Leishmania donovani MHOM/SD/1962/1S-Cl2d assessed as parasite growth inhibition at 50 uM after 24 hrs by AlamarBlue assay (reference value: 0.0 +/- 4.6%). The class given is functional. As to conditions: read-out: GI.
The test system of series [2] is Leishmania donovani. In words: Antileishmanial activity against axenic amastigote stage of Leishmania donovani MHOM/SD/1962/1S-Cl2d assessed as parasite growth inhibition after 24 hrs by AlamarBlue assay. The class given is functional, organism-based. (The colour change of resazurin is a common sign of viable cells or microbes.)
The test system of series [3] is Leishmania donovani. Briefly: Antileishmanial activity against axenic amastigote stage of Leishmania donovani MHOM/SD/1962/1S-Cl2d assessed as parasite growth inhibition at 15 uM after 24 hrs by AlamarBlue assay (reference value: 1.5 +/- 3.8%). The class given is functional. As to conditions: read-out: GI.
Series [4] concerns Leishmania donovani. In words: Antileishmanial activity against axenic amastigote stage of Leishmania donovani MHOM/SD/1962/1S-Cl2d assessed as parasite growth inhibition at 5 uM after 24 hrs by AlamarBlue assay (reference value: 0.0 +/- 0.9%). The class given is functional. As to conditions: read-out: GI.
A short description of series [5]: Selectivity index, ratio of IC50 for human THP1 cells to IC50 for axenic amastigote stage of Leishmania donovani MHOM/SD/1962/1S-Cl2d. It counts as toxicity, cell-based, THP-1. As to conditions: read-out: Ratio IC50.
A further series concerns THP-1. In words: Cytotoxicity against human THP1 cells assessed as cell viability after 48 hrs by AlamarBlue assay. It counts as cell-based. As to conditions: THP-1, 48 h.
Series [6] concerns Leishmania donovani. Briefly: Antileishmanial activity against axenic amastigote stage of Leishmania donovani MHOM/SD/1962/1S-Cl2d assessed as parasite growth inhibition at 1 uM after 24 hrs by AlamarBlue assay relative to control. The class given is functional. As to conditions: read-out: GI.
Series [7] has as its system Leishmania donovani. Briefly: Antileishmanial activity against intracellular amastigote stage of Leishmania donovani infected in human THP1 cells assessed as parasite growth inhibition at 1 uM after 48 hrs by luciferase reporter gene assay relative to control. The class given is functional. As to conditions: THP-1, 48 h, read-out: GI. Background: A reporter such as luciferase makes a cellular process visible.

Series [8] deals with Leishmania donovani. Briefly: Antileishmanial activity against intracellular amastigote stage of Leishmania donovani infected in human THP1 cells assessed as parasite growth inhibition at 5 uM after 48 hrs by luciferase reporter gene assay relative to control. It counts as functional. As to conditions: THP-1, 48 h, read-out: GI.

For `C=C(C)[C@@H]1CC[C@]2(C(=O)O)CC[C@]3(C)[C@H](CC[C@@H]4[C@@]5(C)Cc6nccnc6C(C)(C)[C@@H]5CC[C@]43C)[C@@H]12`, in the series with Leishmania donovani [1], the inhibition of growth at 50 µM is 92.7%. Besides, the IC50 in the series with Leishmania donovani [2] was 13.2 µM. The inhibition of growth at 15 µM with Leishmania donovani [3] came out at 79.7%. In addition, in the series with Leishmania donovani [4], the inhibition of growth at 5 µM was found to be 20.3%.

For the molecule `CC(C)[C@@H]1CC[C@]2(C(=O)O)CC[C@]3(C)[C@H](CC[C@@H]4[C@@]5(C)Cc6cnoc6C(C)(C)[C@@H]5CC[C@]43C)[C@@H]12`, in the series with Leishmania donovani [1], the inhibition of growth at 50 µM was determined as 2.4%.

For the molecule `C=C(C)[C@@H]1CC[C@]2(/C=N/O)CC[C@]3(C)[C@H](CC[C@@H]4[C@@]5(C)Cc6nccnc6C(C)(C)[C@@H]5CC[C@]43C)[C@@H]12`, the inhibition of growth at 50 µM with Leishmania donovani [1] was found to be 2.8%.

Turning to `C=C(C)[C@@H]1CC[C@]2(C(N)=O)CC[C@]3(C)[C@H](CC[C@@H]4[C@@]5(C)Cc6cnoc6C(C)(C)[C@@H]5CC[C@]43C)[C@@H]12`, the inhibition of growth at 50 µM in the series on Leishmania donovani [1] stood at 84.3%. Moreover, the inhibition of growth at 15 µM in the series on Leishmania donovani [3] was 16.7%.

`C=C(C)[C@@H]1CC[C@]2(C(=O)O)CC[C@]3(C)[C@H](CC[C@@H]4[C@@]5(C)CCC(=O)C(C)(C)[C@@H]5CC[C@]43C)[C@@H]12` [BETUNOLIC ACID]: in the series with Leishmania donovani [1], the inhibition of growth at 50 µM is 98.6%. Further, in the series with Leishmania donovani [3], the inhibition of growth at 15 µM amounted to 45.9%.

`C=C(C)[C@@H]1CC[C@]2(C(=O)O)CC[C@]3(C)[C@H](CC[C@@H]4[C@@]5(C)Cc6cccnc6C(C)(C)[C@@H]5CC[C@]43C)[C@@H]12`: the inhibition of growth at 50 µM with Leishmania donovani [1] was 87.9%. Further, in the series with Leishmania donovani [3], the inhibition of growth at 15 µM stood at 25.6%.

Take `C=C(C)[C@@H]1CC[C@]2(C(=O)O)CC[C@]3(C)[C@H](CC[C@@H]4[C@@]5(C)Cc6c([nH]c7ccc(OC)cc67)C(C)(C)[C@@H]5CC[C@]43C)[C@@H]12`: the inhibition of growth at 50 µM with Leishmania donovani [1] was 29.3%. Further, in the series with Leishmania donovani [3], the inhibition of growth at 15 µM was determined as 17.5%. In addition, the inhibition of growth at 5 µM with Leishmania donovani [4] stood at 14%.

`CC1(C)CC[C@]23CC[C@]4(C)[C@H](CC[C@@H]5[C@@]6(C)Cc7c([nH]c8ccc(F)cc78)C(C)(C)[C@@H]6CC[C@]54C)[C@H]2[C@H]1OC3`: in the series on Leishmania donovani [1], the inhibition of growth at 50 µM came to 6.8%. Also, in the series on Leishmania donovani [3], the inhibition of growth at 15 µM is 10.2%. In addition, the inhibition of growth at 5 µM in the series with Leishmania donovani [4] is 0.2%.

Regarding `C=C(C)[C@@H]1CC[C@]2(C(=O)O)CC[C@]3(C)[C@H](CC[C@@H]4[C@@]5(C)CC[C@H](OC(=O)CC(C)(C)C(=O)O)C(C)(C)[C@@H]5CC[C@]43C)[C@@H]12` [BEVIRIMAT], the inhibition of growth at 50 µM with Leishmania donovani [1] came to 100%. In addition, the IC50 is 7.2 µM with Leishmania donovani [2] and 54 µM with THP-1. The selectivity ratio in series [5] is 7.5. The inhibition of growth at 15 µM in the series with Leishmania donovani [3] turned out to be 69.1%. For the same molecule, the inhibition of growth at 5 µM in the series on Leishmania donovani [4] is 59%.

Take `C=C(C)[C@@H]1CC[C@]2(COC(C)=O)CC[C@]3(C)[C@H](CC[C@@H]4[C@@]5(C)Cc6cnoc6C(C)(C)[C@@H]5CC[C@]43C)[C@@H]12`: in the series with Leishmania donovani [1], the inhibition of growth at 50 µM was determined as 6.1%.

With `C[C@@H]1[C@H](O)[C@@H](C)/C=C/C=C/C=C/C=C/C=C/C=C/C=C/[C@H](O[C@@H]2O[C@H](C)[C@@H](O)[C@H](N)[C@@H]2O)C[C@@H]2O[C@](O)(C[C@@H](O)C[C@@H](O)[C@H](O)CC[C@@H](O)C[C@@H](O)CC(=O)O[C@H]1C)C[C@H](O)[C@H]2C(=O)O` [AMPHOTERICIN B], the inhibition of growth at 1 µM with Leishmania donovani [6] was 99.9%; in the series with Leishmania donovani [7], 96.7%.

For `C=C(C)[C@@H]1CC[C@]2(C(=O)O)CC[C@]3(C)[C@H](CC[C@@H]4[C@@]5(C)Cc6cnoc6C(C)(C)[C@@H]5CC[C@]43C)[C@@H]12`, the inhibition of growth at 50 µM with Leishmania donovani [1] stood at 95.7%. In addition, the inhibition of growth at 15 µM in the series on Leishmania donovani [3] was found to be 15.6%.

Take `C=C(C)[C@@H]1CC[C@]2(C(=O)O)CC[C@]3(C)[C@H](CC[C@@H]4[C@@]5(C)Cc6c[nH]nc6C(C)(C)[C@@H]5CC[C@]43C)[C@@H]12`: in the series with Leishmania donovani [1], the inhibition of growth at 50 µM stood at 60.2%.

As for `C=C(C)[C@@H]1CC[C@]2(C(=O)O)CC[C@]3(C)[C@H](CC[C@@H]4[C@@]5(C)Cc6c([nH]c7ccccc67)C(C)(C)[C@@H]5CC[C@]43C)[C@@H]12`, the inhibition of growth at 50 µM with Leishmania donovani [1] amounted to 23.4%. The inhibition of growth at 15 µM in the series with Leishmania donovani [3] is 27.4%. In the series with Leishmania donovani [4], the inhibition of growth at 5 µM was 5%.

In the case of `C=C(C)[C@@H]1CC[C@]2(C(N)=O)CC[C@]3(C)[C@H](CC[C@@H]4[C@@]5(C)Cc6nccnc6C(C)(C)[C@@H]5CC[C@]43C)[C@@H]12`, the inhibition of growth at 50 µM with Leishmania donovani [1] worked out at 94.9%. Also, the inhibition of growth at 15 µM with Leishmania donovani [3] stood at 35.2%.

Consider `CC1(C)CC[C@]23CC[C@]4(C)[C@H](CC[C@@H]5[C@@]6(C)Cc7c([nH]c8ccccc78)C(C)(C)[C@@H]6CC[C@]54C)[C@H]2[C@H]1OC3`, for which, in the series on Leishmania donovani [1], the inhibition of growth at 50 µM turned out to be 19.8%. Moreover, the inhibition of growth at 15 µM in the series with Leishmania donovani [3] was determined as 18.5%.

As for `C=C(C)[C@@H]1CC[C@]2(C(=O)O)CC[C@]3(C)[C@H](CC[C@@H]4[C@@]5(C)CC[C@H](O)C(C)(C)[C@@H]5CC[C@]43C)[C@@H]12` [BETULINIC ACID], in the series with Leishmania donovani [1], the inhibition of growth at 50 µM was 61.1%.

In the case of `C=C(C)[C@@H]1CC[C@]2(C(=O)O)CC[C@]3(C)[C@H](CC[C@@H]4[C@@]5(C)CCC(=O)NC(C)(C)[C@@H]5CC[C@]43C)[C@@H]12`, the inhibition of growth at 50 µM with Leishmania donovani [1] came to 98.2%. Further, the results for the IC50 with Leishmania donovani [2] and in the series with THP-1 were 4.3 µM and 55.5 µM, respectively. For the same molecule, the selectivity ratio in series [5] stood at 12.9. Moreover, the inhibition of growth at 15 µM in the series with Leishmania donovani [3] was found to be 75.2%. Moreover, the inhibition of growth at 5 µM came out at 54% in the series with Leishmania donovani [8] and 52% with Leishmania donovani [4].

Regarding `C=C(C)[C@@H]1CC[C@]2(CO)CC[C@]3(C)[C@H](CC[C@@H]4[C@@]5(C)Cc6cnoc6C(C)(C)[C@@H]5CC[C@]43C)[C@@H]12`, the inhibition of growth at 50 µM with Leishmania donovani [1] came to 56.9%.

In the case of `C=C(C)[C@@H]1CC[C@]2(C=O)CC[C@]3(C)[C@H](CC[C@@H]4[C@@]5(C)Cc6cnoc6C(C)(C)[C@@H]5CC[C@]43C)[C@@H]12`, in the series with Leishmania donovani [1], the inhibition of growth at 50 µM is 34.2%. For the same molecule, in the series on Leishmania donovani [3], the inhibition of growth at 15 µM stood at 21.1%.
